Experimental data taken from patent US12264156B2, “Compounds and pharmaceutical compositions thereof for the treatment of diseases” (GALAPAGOS NV, priority 2018, dated 2025).

Legend:
Type in all cases: biochemical
Conditions in all cases: ADP-Glo SIK kinase assay
[1] = molecular target: T1, SIK1 (Homo sapiens, UniProt P57059); assay: ADP-Glo kinase assay, SIK1
T1 construct: purchased Carna Biosciences 02-131
Method: (§1) The ADP-Glo™ kinase assay is a luminescent technology assay which measures the ADP formed from a kinase reaction. […] In a second step the kinase reactions are terminated and all the remaining ATP is depleted. In a final step the ADP is converted into ATP and this newly synthesized ATP is measured by using a luciferase/luciferin reaction. The generated light is measured using an Envision plate reader, wherein the luminescent signal obtained positively correlates with the kinase activity.
(§2) 1% DMSO and 10 μM staurosporine final concentrations are used as negative and positive controls.
(§3) 2 μL enzyme-substrate mixture is added to the assay plates.
(§4) The reaction is started by adding 2 μL diluted ATP on the assay plates. Plates are centrifuged for a few seconds at 1000 rpm and gently shaken for 2 min followed by an incubation at RT for 120 min.
(§5) The reactions are stopped and the unconsumed ATP is depleted by adding 5 μL ADP-Glo Reagent (Promega, Cat #V912B) to the reaction. The plates are centrifuged for a few seconds at 1000 rpm and incubated at RT for 40 min (ATP depletion).
(§6) The ADP is converted to ATP and luciferase and luciferin is introduced to detect ATP by adding 10 μL Kinase Detection Reagent (Promega, Cat #V913B+V914B) to the reaction. The plates are centrifuged for a few seconds at 1000 rpm and incubated at RT for 30 min (ADP detection).
(§7) Luminescence is measured on an Envision plate reader (PerkinElmer Inc.).

[2] = molecular target: T2, SIK2 (Homo sapiens, UniProt Q9H0K1); assay: ADP-Glo kinase assay, SIK2
T2 construct: purchased ThermoFisher Scientific PV4792
Method: as §1, §2, §3, §4, §5, §6, §7

[3] = molecular target: T3, SIK3 (Homo sapiens, UniProt Q9Y2K2); assay: ADP-Glo kinase assay, SIK3
T3 construct: purchased SignalChem S12-11G-100
Method: as §1, §2, §3, §4, §5, §6, §7

T3 sequence (Q9Y2K2 whole entry): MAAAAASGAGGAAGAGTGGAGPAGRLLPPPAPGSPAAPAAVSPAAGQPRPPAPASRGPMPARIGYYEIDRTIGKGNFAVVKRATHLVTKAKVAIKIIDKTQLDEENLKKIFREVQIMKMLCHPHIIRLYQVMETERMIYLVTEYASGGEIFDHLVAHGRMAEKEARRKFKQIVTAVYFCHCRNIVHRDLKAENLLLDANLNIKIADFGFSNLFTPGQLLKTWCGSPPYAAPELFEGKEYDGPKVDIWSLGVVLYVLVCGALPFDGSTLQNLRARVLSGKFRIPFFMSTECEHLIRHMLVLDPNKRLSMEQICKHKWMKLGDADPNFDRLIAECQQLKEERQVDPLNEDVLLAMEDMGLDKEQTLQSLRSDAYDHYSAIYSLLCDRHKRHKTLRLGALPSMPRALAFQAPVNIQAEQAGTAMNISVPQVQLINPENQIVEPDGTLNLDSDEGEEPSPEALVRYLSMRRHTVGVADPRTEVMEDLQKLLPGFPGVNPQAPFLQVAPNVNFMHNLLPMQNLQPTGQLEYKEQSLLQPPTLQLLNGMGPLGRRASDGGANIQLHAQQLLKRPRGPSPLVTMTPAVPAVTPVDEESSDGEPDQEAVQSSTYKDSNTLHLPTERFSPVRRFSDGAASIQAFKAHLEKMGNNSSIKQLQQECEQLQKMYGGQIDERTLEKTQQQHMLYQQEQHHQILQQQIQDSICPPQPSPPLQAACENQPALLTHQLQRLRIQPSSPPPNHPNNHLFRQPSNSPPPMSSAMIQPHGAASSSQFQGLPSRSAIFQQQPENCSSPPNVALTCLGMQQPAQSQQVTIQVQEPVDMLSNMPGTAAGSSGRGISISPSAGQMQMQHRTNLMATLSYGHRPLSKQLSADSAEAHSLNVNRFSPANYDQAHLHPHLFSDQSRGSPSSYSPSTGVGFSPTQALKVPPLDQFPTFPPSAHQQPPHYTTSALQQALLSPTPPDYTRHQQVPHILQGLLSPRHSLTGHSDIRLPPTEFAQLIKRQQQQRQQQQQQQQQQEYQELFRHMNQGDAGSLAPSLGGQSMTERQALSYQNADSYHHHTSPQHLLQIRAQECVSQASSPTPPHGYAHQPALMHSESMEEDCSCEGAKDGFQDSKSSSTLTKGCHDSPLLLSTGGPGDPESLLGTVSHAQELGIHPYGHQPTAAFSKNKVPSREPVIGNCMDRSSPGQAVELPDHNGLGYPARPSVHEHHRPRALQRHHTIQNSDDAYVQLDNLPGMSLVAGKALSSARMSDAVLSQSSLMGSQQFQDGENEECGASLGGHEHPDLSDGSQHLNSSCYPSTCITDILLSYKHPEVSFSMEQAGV
T1 sequence (P57059 whole entry): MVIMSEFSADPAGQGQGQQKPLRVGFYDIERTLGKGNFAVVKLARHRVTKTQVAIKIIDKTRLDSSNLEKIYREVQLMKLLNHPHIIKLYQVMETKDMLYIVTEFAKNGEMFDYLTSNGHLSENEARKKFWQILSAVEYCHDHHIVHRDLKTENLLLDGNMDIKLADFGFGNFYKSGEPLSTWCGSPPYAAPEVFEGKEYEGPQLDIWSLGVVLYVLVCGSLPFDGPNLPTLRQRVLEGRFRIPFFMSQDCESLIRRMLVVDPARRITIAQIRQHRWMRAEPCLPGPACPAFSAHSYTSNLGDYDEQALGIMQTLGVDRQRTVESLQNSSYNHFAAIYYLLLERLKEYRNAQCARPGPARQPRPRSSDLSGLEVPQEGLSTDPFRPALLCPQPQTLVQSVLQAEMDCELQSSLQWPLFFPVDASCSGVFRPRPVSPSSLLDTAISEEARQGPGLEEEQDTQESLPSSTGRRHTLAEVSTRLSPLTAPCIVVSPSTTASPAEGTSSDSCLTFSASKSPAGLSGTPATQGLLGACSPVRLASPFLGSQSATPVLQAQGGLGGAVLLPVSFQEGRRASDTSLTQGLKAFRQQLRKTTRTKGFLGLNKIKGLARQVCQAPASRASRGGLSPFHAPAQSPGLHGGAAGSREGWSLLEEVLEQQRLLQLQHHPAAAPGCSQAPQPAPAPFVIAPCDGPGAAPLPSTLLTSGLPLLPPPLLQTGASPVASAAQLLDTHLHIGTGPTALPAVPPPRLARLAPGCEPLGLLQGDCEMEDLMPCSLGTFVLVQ
T2 sequence (Q9H0K1 whole entry): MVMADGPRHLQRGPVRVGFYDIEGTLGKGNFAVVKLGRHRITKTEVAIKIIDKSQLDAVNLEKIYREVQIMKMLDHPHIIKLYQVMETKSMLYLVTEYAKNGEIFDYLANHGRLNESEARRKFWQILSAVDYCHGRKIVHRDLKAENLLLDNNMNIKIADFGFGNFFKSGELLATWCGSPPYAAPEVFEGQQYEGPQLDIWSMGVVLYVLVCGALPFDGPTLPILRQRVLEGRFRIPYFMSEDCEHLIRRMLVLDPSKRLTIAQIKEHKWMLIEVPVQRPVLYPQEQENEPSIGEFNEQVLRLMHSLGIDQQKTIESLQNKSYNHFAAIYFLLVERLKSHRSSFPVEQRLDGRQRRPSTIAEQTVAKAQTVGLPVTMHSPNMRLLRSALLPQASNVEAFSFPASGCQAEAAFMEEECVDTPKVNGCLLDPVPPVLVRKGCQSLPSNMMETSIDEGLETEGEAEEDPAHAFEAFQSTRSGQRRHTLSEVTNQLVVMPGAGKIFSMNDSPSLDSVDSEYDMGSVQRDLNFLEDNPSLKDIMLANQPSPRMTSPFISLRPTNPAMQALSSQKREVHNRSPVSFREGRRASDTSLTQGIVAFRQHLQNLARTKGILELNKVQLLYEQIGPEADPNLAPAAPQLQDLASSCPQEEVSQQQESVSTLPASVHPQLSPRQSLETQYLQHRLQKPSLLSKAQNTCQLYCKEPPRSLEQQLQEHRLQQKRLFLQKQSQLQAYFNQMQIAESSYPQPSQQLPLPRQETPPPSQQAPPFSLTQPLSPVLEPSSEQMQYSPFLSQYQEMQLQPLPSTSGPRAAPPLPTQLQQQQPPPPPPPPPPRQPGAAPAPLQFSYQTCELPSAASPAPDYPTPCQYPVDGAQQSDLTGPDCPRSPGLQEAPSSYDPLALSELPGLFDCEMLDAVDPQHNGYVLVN

| SMILES | IC50 [1] [nM] | IC50 [2] [nM] | IC50 [3] [nM] |
| --- | --- | --- | --- |
| COc1cc(-c2cnc3cc(OCC4(C)CN(C(=O)OC(C)(C)C)C4)ccn23)cc(OC(F)F)c1C(=O)NC1CC1 [Cpd 188, tert-butyl 3-[[3-[4-(cyclopropylcarbamoyl)-3-(difluoromethoxy)-5-methoxy-phenyl]imidazo[1,2-a]pyridin-7-yl]oxymethyl]-3-methyl-azetidine-1-carboxylate] | 10 to 100 | 0.01 to 10 | 0.01 to 10 |
| COc1cc(-c2cnc3cc(OCCN4CCOCC4)ccn23)cc2ccn(CC(F)(F)F)c(=O)c12 [Cpd 221, 8-methoxy-6-[7-(2-morpholinoethoxy)imidazo [1,2-a]pyridin-3-yl]-2-(2,2,2-trifluoroethyl) isoquinolin-1-one] | > 500 | 10 to 100 | 10 to 100 |
| O=C1c2c(cc(-c3cnc4cc(OCCN5CCOCC5)ccn34)cc2OC(F)F)CCN1CC(F)F [Cpd 247, 2-(2,2-difluoroethyl)-8-(difluoromethoxy)-6-[7-(2-morpholinoethoxy)imidazo[1,2-a]pyridin-3-yl]-3,4-dihydroisoquinolin-1-one] | 100 to 500 | 0.01 to 10 | 0.01 to 10 |
| COc1cc(-c2cnc3cc(OCC4(C)CNC4)ccn23)cc2c1C(=O)N(CC(F)(F)F)CC2 [Cpd 251, 8-methoxy-6-[7-[(3-methylazetidin-3-yl)methoxy]imidazo [1,2-a]pyridin-3-yl]-2-(2,2,2-trifluoroethyl)-3,4-dihydroisoquinolin-1-one] | 100 to 500 | 10 to 100 | 0.01 to 10 |
| COc1cc(-c2cnc3cc(OCC4(C)CN(C)C4)ccn23)cc2c1C(=O)N(CC(F)(F)F)CC2 [Cpd 253, 6-[7-[(1,3-dimethylazetidin-3-yl)methoxy]imidazo[1,2-a]pyridin-3-yl]-8-methoxy-2-(2,2,2-trifluoroethyl)-3,4-dihydroisoquinolin-1-one] | > 500 | 10 to 100 | 0.01 to 10 |
| COc1cc(-c2cnc3cc(OC4(C#N)CCCC4)ccn23)cc(OC(F)F)c1C(=O)NC1CC1 [Cpd 255, 4-[7-(1-cyanocyclopentoxy)imidazo[1,2-a]pyridin-3-yl]-N-cyclopropyl-2-(difluoromethoxy)-6-methoxy-benzamide] | > 500 | 100 to 500 | 10 to 100 |
| COc1ccn2c(-c3cc4c(c(OC)c3)C(=O)N(CC(F)(F)F)CC4)cnc2c1 [Cpd 256, 8-methoxy-6-(7-methoxyimidazo[1,2-a]pyridin-3-yl)-2-(2,2,2-trifluoroethyl)-3,4-dihydroisoquinolin-1-one] | 100 to 500 | 10 to 100 | 10 to 100 |
| COc1cc(-c2cnc3cc(OCCO)ccn23)cc2c1C(=O)N(CC(F)(F)F)CC2 [Cpd 258, 6-[7-(2-hydroxyethoxy)imidazo [1,2-a]pyridin-3-yl]-8-methoxy-2-(2,2,2-trifluoroethyl)-3,4-dihydroisoquinolin-1-one] | 100 to 500 | 10 to 100 | 0.01 to 10 |
| COCC(C)(C)Oc1ccn2c(-c3cc(OC)c(C(=O)NC4CC4)c(OC(F)F)c3)cnc2c1 [Cpd 260, N-cyclopropyl-2-(difluoromethoxy)-6-methoxy-4-[7-(2-methoxy-1,1-dimethyl-ethoxy)imidazo[1,2-a]pyridin-3-yl]benzamide] | > 500 | > 500 | 10 to 100 |
| COc1cc(-c2cnc3cc(OC(C)(C)C#N)ccn23)cc(OC(F)F)c1C(=O)NC1CC1 [Cpd 263, 4-[7-(1-cyano-1-methyl-ethoxy)imidazo[1,2-a]pyridin-3-yl]-N-cyclopropyl-2-(difluoromethoxy)-6-methoxy-benzamide] | > 500 | > 500 | 10 to 100 |

The next lines start with the values.

| IC50 [1] [nM] | IC50 [2] [nM] | IC50 [3] [nM] | SMILES |
| --- | --- | --- | --- |
| 100 to 500 | 10 to 100 | 0.01 to 10 | CCOc1ccn2c(-c3cc4c(c(OC)c3)C(=O)N(CC(F)(F)F)CC4)cnc2c1 [Cpd 264, 6-(7-ethoxyimidazo[1,2-a]pyridin-3-yl)-8-methoxy-2-(2,2,2-trifluoroethyl)-3,4-dihydroisoquinolin-1-one] |
| > 500 | > 500 | > 500 | O=C1c2ncc(-c3cnc4cc(OCCN5CCOCC5)ccn34)cc2CN1CC(F)(F)F [Cpd 266, 3-[7-(2-morpholinoethoxy)imidazo [1,2-a]pyridin-3-yl]-6-(2,2,2-trifluoroethyl)-5H-pyrrolo[3,4-b]pyridin-7-one] |
| 10 to 100 | 0.01 to 10 | 0.01 to 10 | COc1cc(-c2cnc3cc(OCCCOC(C)=O)ccn23)cc(OC(F)F)c1C(=O)NC1CC1 [Cpd 282, 3-[3-[4-(cyclopropylcarbamoyl)-3-(difluoromethoxy)-5-methoxy-phenyl]imidazo[1,2-a]pyridin-7-yl]oxypropyl acetate] |
| 10 to 100 | 0.01 to 10 | 0.01 to 10 | COc1cc(-c2cnc3cc(OC[C@H]4CCNC4)ccn23)cc(OC(F)F)c1C(=O)NC1CC1 [Cpd 314, N-cyclopropyl-2-(difluoromethoxy)-6-methoxy-4-[7-[[(3S)-pyrrolidin-3-yl]methoxy]imidazo[1,2-a]pyridin-3-yl]benzamide] |
| 10 to 100 | 0.01 to 10 | 0.01 to 10 | COc1cc(-c2cnc3cc(OCCCOS(C)(=O)=O)ccn23)cc(OC(F)F)c1C(=O)NC1CC1 [Cpd 333, 3-[3-[4-(cyclopropylcarbamoyl)-3-(difluoromethoxy)-5-methoxy-phenyl]imidazo[1,2-a]pyridin-7-yl]oxypropyl methanesulfonate] |
| 10 to 100 | 0.01 to 10 | 0.01 to 10 | COc1cc(-c2cnc3cc(OC[C@H]4CCCN(CCO)C4)ccn23)cc(OC(F)F)c1C(=O)NC1CC1 [Cpd 340, N-cyclopropyl-2-(difluoromethoxy)-4-[7-[[(3S)-1-(2-hydroxyethyl)-3-piperidyl]methoxy]imidazo [1,2-a]pyridin-3-yl]-6-methoxy-benzamide] |
| 10 to 100 | 0.01 to 10 | 0.01 to 10 | COc1cc(-c2cnc3cc(OC[C@H]4CCN(CCO)C4)ccn23)cc(OC(F)F)c1C(=O)NC1CC1 [Cpd 341, N-cyclopropyl-2-(difluoromethoxy)-4-[7-[[(3S)-1-(2-hydroxyethyl)pyrrolidin-3-yl]methoxy]imidazo[1,2-a]pyridin-3-yl]-6-methoxy-benzamide] |
| 10 to 100 | 0.01 to 10 | 0.01 to 10 | COc1cc(-c2cnc3cc(OCC4CN(CC(C)(C)O)C4)ccn23)cc(OC(F)F)c1C(=O)NC1CC1 [Cpd 342, N-cyclopropyl-2-(difluoromethoxy)-4-[7-[[1-(2-hydroxy-2-methyl-propyl)azetidin-3-yl]methoxy]imidazo[1,2-a]pyridin-3-yl]-6-methoxy-benzamide] |
| 10 to 100 | 0.01 to 10 | 0.01 to 10 | COc1cc(-c2cnc3cc(OCC4CN(CCO)C4)ccn23)cc(OC(F)F)c1C(=O)NC1CC1 [Cpd 343, N-cyclopropyl-2-(difluoromethoxy)-4-[7-[[1-(2-hydroxyethyl)azetidin-3-yl]methoxy]imidazo[1,2-a]pyridin-3-yl]-6-methoxy-benzamide] |
| 10 to 100 | 0.01 to 10 | 0.01 to 10 | COc1cc(-c2cnc3cc(OCCCN4CCCCC4)ccn23)cc(OC(F)F)c1C(=O)N1CC(C#N)C1 [Cpd 357, 1-[2-(difluoromethoxy)-6-methoxy-4-[7-[3-(1-piperidyl)propoxy]imidazo[1,2-a]pyridin-3-yl]benzoyl]azetidine-3-carbonitrile] |
| 10 to 100 | 0.01 to 10 | 0.01 to 10 | COC(=O)NCC(F)(F)COc1ccn2c(-c3cc(OC)c(C(=O)NC4CC4)c(OC(F)F)c3)cnc2c1 [Cpd 365, methyl N-[3-[3-[4-(cyclopropylcarbamoyl)-3-(difluoromethoxy)-5-methoxy-phenyl]imidazo[1,2-a]pyridin-7-yl]oxy-2,2-difluoro-propyl]carbamate] |
| 10 to 100 | 0.01 to 10 | 0.01 to 10 | COc1cc(-c2cnc3cc(OCC4(O)CCN(C(C)C)C4)ccn23)cc(OC(F)F)c1C(=O)NC1CC1 (stereo not drawn) [Cpd 372, N-cyclopropyl-2-(difluoromethoxy)-4-[7-[(3-hydroxy-1-isopropyl-pyrrolidin-3-yl)methoxy]imidazo[1,2-a]pyridin-3-yl]-6-methoxy-benzamide] |
| 100 to 500 | 100 to 500 | 10 to 100 | COc1cc(-c2cnc3cc(OCC(=O)O)ccn23)cc(OC(F)F)c1C(=O)NC1CC1 [Cpd 396, 2-[3-[4-(cyclopropylcarbamoyl)-3-(difluoromethoxy)-5-methoxy-phenyl]imidazo[1,2-a]pyridin-7-yl]oxyacetic acid] |
| 10 to 100 | 10 to 100 | 0.01 to 10 | CCOC(=O)CN1CCCCC1COc1ccn2c(-c3cc(OC)c(C(=O)NC4CC4)c(OC(F)F)c3)cnc2c1 (stereo not drawn) [Cpd 397, ethyl 2-[2-[[3-[4-(cyclopropylcarbamoyl)-3-(difluoromethoxy)-5-methoxy-phenyl]imidazo[1,2-a]pyridin-7-yl]oxymethyl]-1-piperidyl]acetate] |
